{"source": "patent US20150072935A1", "about": "“COMPOSITION AND EXTERNAL APPLICATION FOR ACCELERATION OF MUSCLE DIFFERENTIATION AND IMPROVING OF MUSCLE MASS” (NEOPHARM CO., LTD., priority 2013, published 2015)", "key": {"C2C12 myoblast cells [1]": {"test_system": "C2C12 myoblast cells", "test": "Muscle differentiation promotion in C2C12 myoblast cells, western blotting of muscle proteins, concentration dependence", "assay_type": "cell-based", "details": "differentiation medium with 2% horse serum, 0, 10 and 100 uM, after 3 days of differentiation induction, western blotting (FIG. 1)", "procedure": "Undifferentiated C2C12 myoblast cells were cultured in a dish having a diameter of 100 mm using a Dulbecco's modified Eagle's medium (DMEM) with 10% fetal bovine serum (FBS). When the cells covered about 70% of an area, the cells were seeded in a 6-well dish at 8×10^5/well and cultured until the cells covered 90% of an area. Thereafter, muscle differentiation was induced using a differentiation medium with 2% horse serum. In this case, the cells were treated with a myotide (Chemical Formula 2, Incospharm Corp.) composition (0.1% DMSO in phosphate buffer saline) of the present invention at contents of 0, 10, and 100 uM. The differentiation medium was changed into a new differentiation medium containing […] every 24 hours, and after 3 days of differentiation induction, muscles cell lysis was performed using a cell lysis buffer, followed by western blotting. In order to confirm a degree of muscle differentiation, protein expression amounts of myosin heavy chain I, caveolin-3, and myogenin, which are representative protein of muscles, were observed. […] Therefore, the composition according to the present invention promoted muscle differentiation."}, "C2C12 myoblast cells [2]": {"test_system": "C2C12 myoblast cells", "test": "Muscle differentiation promotion in C2C12 myoblast cells depending on differentiation time, western blotting", "assay_type": "cell-based", "details": "differentiation medium with 2% horse serum, 50 uM, after 1, 2 and 3 days of differentiation induction, western blotting (FIG. 2)", "procedure": "Undifferentiated C2C12 myoblast cells were cultured in a dish having a diameter of 100 mm using a DMEM with 10% fetal bovine serum (FBS). When the cells covered about 70% of an area, the cells were seeded in a 6-well dish at 8×10^5/well and cultured until the cells covered 90% of an area. Thereafter, muscle differentiation was induced using a differentiation medium with 2% horse serum. In this case, the cells were treated with a myotide (Chemical Formula 2, Incospharm Corp.) composition (0.1% DMSO in phosphate buffer saline) of the present invention at a content of 50 uM. After 1, 2, and 3 days of differentiation induction, cell lysis was performed using a lysis buffer, and a degree of muscle differentiation was confirmed by western blotting."}}, "note": "Numbered stars: 1 amine (or outer) side, 2 acyl side, 3 side chain; on linkers, the order of the positions; unused ones are H or OH. Square brackets hold non-standard residues; d marks the D form. Peptide text beside a SMILES is read from it. * marks the point of attachment. ξ: configuration not given here. Biotin = O=C1N[C@H]2[C@H](CS[C@H]2CCCCC(=O)*)N1; X1 = O=C(C(CC1=NCNC1)N[*:1])[*:2]; ξW = NC(Cc1c[nH]c2ccccc12)C(=O)O; ξF = NC(Cc1ccccc1)C(=O)O; ξK = NCCCCC(N)C(=O)O; ξA = CC(N)C(=O)O"}
{"smiles": "CC(NC(=O)C(Cc1c[nH]c2ccccc12)NC(=O)C(CC1=NCNC1)NC(=O)CCCC[C@@H]1SC[C@@H]2NC(=O)N[C@@H]21)C(=O)NC(Cc1c[nH]c2ccccc12)C(=O)NC(Cc1ccccc1)C(=O)NC(CCCCN)C(N)=O", "note": "(some centres unmarked) [myotide] (Biotin-[X1][ξW][ξA][ξW][ξF][ξK]-NH2)", "values": [{"measurement": "expression of muscle proteins (myosin heavy chain I, caveolin-3, myogenin)", "setting": "C2C12 myoblast cells [1]", "result": "concentration-dependently increased"}, {"measurement": "expression of muscle proteins (myosin heavy chain I, caveolin-3, and myogenin)", "setting": "C2C12 myoblast cells [2]", "result": "increased"}]}
